{"source": "the OPERA property sets (Mansouri et al. 2018)"}
{"units": {"boiling point": "°C", "melting point": "°C"}}
{"smiles": "FC(F)(Br)C(F)(F)Br", "boiling point": 47.3, "log10 vapour pressure (mmHg)": 2.51, "melting point": -110, "ready biodegradability": "not readily biodegradable"}
{"smiles": "CCCC(C)c1ccccc1", "note": "(centres undefined)", "boiling point": 199}
{"smiles": "Clc1cc(-c2c(Cl)cc(Cl)c(Cl)c2Cl)c(Cl)c(Cl)c1Cl", "log10 Henry constant (atm·m³/mol)": -5}
{"smiles": "CCOC=C(C#N)C#N", "melting point": 66}
{"smiles": "FC(Cl)C(Cl)(Cl)Cl", "note": "(centres undefined)", "boiling point": 116, "melting point": -95.3}
{"smiles": "CCC1(CC2(c3cccc(Cl)c3)CO2)C(=O)c2ccccc2C1=O", "note": "(centres undefined)", "log10 vapour pressure (mmHg)": -7.7, "melting point": 61}
{"smiles": "CCCCCCCCCCCCCCCC(=O)[O-].[Na+]", "melting point": 286}
{"smiles": "Cc1cc(O)c2ccccc2c1O", "melting point": 169}
{"smiles": "CCOC(=O)CC#N", "boiling point": 210, "log10 vapour pressure (mmHg)": -1.41, "melting point": -22.5, "ready biodegradability": "readily biodegradable"}
{"smiles": "CC(C)(O)C(Cl)(Cl)Cl", "boiling point": 167, "melting point": 97, "ready biodegradability": "not readily biodegradable"}
{"smiles": "Clc1cc(Cl)c2c(Cl)cc(Cl)cc2c1", "log10 Koa": 8.28}
{"smiles": "C[C@]12CCC(=O)C(O)=C1CC[C@@H]1[C@@H]2CC[C@@]2(C)[C@H]1CC[C@]2(C)O", "melting point": 170}
{"smiles": "CC(C)C1CCC(C)(O)CC1", "note": "(centres undefined)", "boiling point": 208}
{"smiles": "COc1ccccc1OCC(O)COC(N)=O", "note": "(centres undefined)", "melting point": 93, "ready biodegradability": "not readily biodegradable"}
{"smiles": "CCC1C=CCCC1", "note": "(centres undefined)", "boiling point": 134}
{"smiles": "CCCCCCCC1CCCC(=O)O1", "note": "(centres undefined)", "melting point": -12}
{"smiles": "O=C(OC(=O)C(F)(F)F)C(F)(F)F", "boiling point": 39.5, "log10 vapour pressure (mmHg)": 1.61, "melting point": -65}
{"smiles": "CN1CCN(C2=Nc3ccccc3Sc3ccc(Cl)cc32)CC1", "melting point": 119}
{"smiles": "C[C@@H](N)C(=O)O", "melting point": 292}
{"smiles": "Cc1ccc(S(=O)c2ccc(C)cc2)cc1", "melting point": 95}
{"smiles": "CC(C)(c1cc(Cl)c(O)c(Cl)c1)c1cc(Cl)c(O)c(Cl)c1", "melting point": 135}
{"smiles": "C=CC1(C)CC(OC(=O)CO)C2(C)C(C)CCC3(CCC(=O)C32)C(C)C1O", "note": "(centres undefined)", "melting point": 170}
{"smiles": "CCCCCCCCCc1ccc2ccccc2c1", "boiling point": 372, "melting point": 12}
{"smiles": "NCCCN", "boiling point": 140}
{"smiles": "CC1CCC(C(C)C)C(O)C1", "note": "(centres undefined)", "log10 vapour pressure (mmHg)": -1.08, "melting point": 39, "ready biodegradability": "not readily biodegradable"}
{"smiles": "C[Si](C)(C)CO", "boiling point": 121}
{"smiles": "Cc1ccc(O)cc1C", "ready biodegradability": "readily biodegradable"}
{"smiles": "Clc1cc2c(c(Cl)c1Cl)Oc1cc(Cl)c(Cl)c(Cl)c1O2", "log10 Koa": 11, "log10 vapour pressure (mmHg)": -10.4, "melting point": 285}
{"smiles": "O=C(OCc1ccccc1)c1ccccc1", "boiling point": 324, "log10 vapour pressure (mmHg)": -3.65, "melting point": 21, "ready biodegradability": "readily biodegradable"}
{"smiles": "CCCCCCCCCCCCCCCCCCCCCC1CCCC1", "boiling point": 420, "melting point": 42}
{"smiles": "OCCCBr", "log10 vapour pressure (mmHg)": -1}
{"smiles": "C[Si](Cl)(Cl)Cl", "boiling point": 65.6, "log10 vapour pressure (mmHg)": 2.22, "melting point": -90}
{"smiles": "CC[B]CC", "boiling point": 112, "melting point": -56.3}
{"smiles": "C[Si](C)(C)O[Si](C)(C)O[Si](C)(C)O[Si](C)(C)O[Si](C)(C)O[Si](C)(C)O[Si](C)(C)O[Si](C)(C)O[Si](C)(C)O[Si](C)(C)O[Si](C)(C)C", "boiling point": 323}
{"smiles": "C=CC(C)(CCC=C(C)C)OC(C)=O", "note": "(centres undefined)", "boiling point": 220, "log10 vapour pressure (mmHg)": -0.955}
{"smiles": "O=[N+]([O-])c1c(O)c(Cl)cc(Cl)c1Cl", "melting point": 92.5}
{"smiles": "COc1cccc(F)c1", "boiling point": 159, "melting point": -35}
{"smiles": "COc1ccccc1NC(C)=O", "boiling point": 304, "melting point": 87.5}
{"smiles": "COc1ccc(COC(C)=O)cc1", "boiling point": 270, "melting point": 84}
{"smiles": "ClC(Cl)=C(Cl)C(Cl)=C(Cl)Cl", "boiling point": 215, "log10 Henry constant (atm·m³/mol)": -1.99, "log10 vapour pressure (mmHg)": -0.658, "melting point": -21, "ready biodegradability": "not readily biodegradable"}
{"smiles": "Brc1ccc(Br)c2ccccc12", "boiling point": 310, "melting point": 83}
{"smiles": "CC(C)(O)Cc1ccc(Cl)cc1", "melting point": 34}
{"smiles": "C=C(C)C(=O)OCC1CO1", "note": "(centres undefined)", "ready biodegradability": "readily biodegradable"}
{"smiles": "NS(=O)(=O)c1cccc([N+](=O)[O-])c1", "melting point": 167}
{"smiles": "CCOc1ccc2cc(O)c(O)cc2c1", "melting point": 132}
{"smiles": "C#CCCCCCCCCCCCCCCCCCC", "boiling point": 340, "melting point": 36}
{"smiles": "C#CC(C)(CC)OC(=O)c1ccccc1C(=O)O", "note": "(centres undefined)", "melting point": 97}
{"smiles": "CC1(C)CC[C@]2(C)CC=C3[C@]4(C)CC[C@H]5C(C)(C)[C@@H](O)CC[C@]5(C)[C@H]4CC[C@@]3(C)[C@@H]2C1", "melting point": 284}
{"smiles": "CCOP(=S)(OCC)Oc1ccc2c(C)c(Cl)c(=O)oc2c1", "log10 vapour pressure (mmHg)": -7.01, "melting point": 93}
{"smiles": "O=C(c1ccccc1)c1ccc(Br)cc1", "boiling point": 350, "melting point": 82.5}
{"smiles": "CC(=O)c1cc(C)c(C)cc1C", "boiling point": 246, "melting point": 10.5}
{"smiles": "COB1OB(OC)OB(OC)O1", "boiling point": 130, "melting point": 10}
{"smiles": "O=C1CCCCCCCCC1=O", "melting point": 40.5}
{"smiles": "O=C1C=C(c2ccccc2)CC1", "boiling point": 234, "melting point": -23}
{"smiles": "O=[N+]([O-])c1cccc2cccc([N+](=O)[O-])c12", "melting point": 173}
{"smiles": "CC(=O)N(C)C", "ready biodegradability": "readily biodegradable"}
{"smiles": "OCC(CO)(CCl)CCl", "melting point": 83}
{"smiles": "COc1cccc(C(=O)NN)c1", "melting point": 94}
{"smiles": "C=CC[C@H](C)O", "boiling point": 116}
{"smiles": "c1ccc(N2CCOCC2)cc1", "melting point": 52.5}
{"smiles": "CCC(C(N)=O)c1ccccc1", "note": "(centres undefined)", "melting point": 86}
{"smiles": "Cc1cc(O)ccc1Cl", "boiling point": 235, "log10 vapour pressure (mmHg)": -1.3, "melting point": 67, "ready biodegradability": "readily biodegradable"}
{"smiles": "C[C@@H]1C[C@H]2[C@@H]3CCC4=CC(=O)C=C[C@]4(C)[C@@]3(F)[C@@H](O)C[C@]2(C)[C@H]1C(=O)CO", "melting point": 217}
{"smiles": "C#CC(C)(C)NC(=O)c1ccccc1", "log10 Koc (L/kg)": 1.54}
{"smiles": "C1CC2CCC1C2", "boiling point": 105, "melting point": 87.5}
